Test results published in patent US10196393B2, “JAK inhibitors containing a 4-membered heterocyclic amide” (THERAVANCE BIOPHARMA R&D IP, LLC, priority 2017, dated 2019).
Where two headings read alike, the source gives them in different places.

What was measured:
Assay type in all cases: cell-based
[1] = system: IFNγ induced CXCL10 and CXCL9 secretion in EpiAirway tissue cultures; assay: Inhibition of IFNγ induced chemokines CXCL9 and CXCL10 in human 3D airway cultures; conditions: 192 h, Day 8, ±STDV
Experimental: Assay 7: Inhibition of IFNγ and IL-27 Induced Chemokines CXCL9 and CXCL10 in Human 3D Airway Cultures
EpiAirway tissue cultures were obtained from Mattek (AIR-100). Cultures were derived from asthmatic donors. In a cell culture insert, human derived tracheal/bronchial epithelial cells were grown and differentiated on a porous membrane support, allowing an air-liquid interface with warmed culture medium below the cells and a gaseous test atmosphere above. Tissues were cultured in maintenance media (Mattek, AIR-100-MM) in a 37° C., 5% CO2 humidified incubator. Four donors were tested. On Day 0, tissue cultures were treated with test compounds at 10 μM, 1 μM and/or 0.1 μM. Compounds were diluted in dimethyl sulfoxide (DMSO, Sigma) to a final concentration of 0.1%. DMSO at 0.1% was used as a vehicle control. Test compounds were incubated with cultures for 1 hour at 37° C., 5% CO2, followed by the addition of pre-warmed media containing IFNγ (R&D Systems) or IL-27 (R&D Systems) at a final concentration at 100 ng/ml. Tissue cultures were maintained for 8 days. Media was replaced every 2 days with fresh media containing compounds and IFNγ or IL-27. On Day 8, tissue cultures and supernatants were collected for analysis. Supernatant samples were assayed for CXCL10 (IP-10) and CXCL9 (MIG) using luminex analysis (EMD Millipore). Data is expressed as % Inhibition +/−standard deviation (±STDV). Percent inhibition was determined by compound inhibitory potency against IFNγ or IL-27 induced CXCL10 or CXCL9 secretion compared to vehicle treated cells. Data is the average from 3 or 4 donors. […] The compound of example 2 was able to inhibit IFNγ induced CXCL9 secretion by 93%±13 (at 10 μM) and 24%±49 (at 1 μM) when compared to vehicle.

[2] = system: IL-6 stimulated STAT3 phosphorylation in CD3+ T cells; assay: Cellular JAK potency assay: inhibition of IL-6 stimulated pSTAT3 in CD3+ T cells; conditions: T-cell; CD3+ T cells in human PBMCs; read-out: pIC50, inhibition of IL-6 stimulated pSTAT3 (converted)
Text: Assay 11: Cellular JAK Potency Assay: Inhibition of IL-6 Stimulated pSTAT3 in CD3+ T Cells
A protocol analogous to that of Assay 10 was used to determine the potency of the test compound for inhibition of interleuken-6 (IL-6) stimulated STAT3 phosphorylation. An Alexa Fluor 647 conjugated anti-pSTAT3 antibody (pY705, Clone 4/P, BD Biosciences) was used to detect STAT3 phosphorylation.

[3] = system: IL-5 mediated eosinophil survival in human eosinophils; assay: IL-5 mediated eosinophil survival assay; conditions: 72 h, read-out: pIC50, IL-5 mediated eosinophil survival (converted)
Experimental: Assay 6: IL-5 Mediated Eosinophil Survival Assay
The potency of the test compound for IL-5 mediated eosinophil survival was measured in human eosinophils isolated from human whole blood (AllCells). Because IL-5 signals through JAK, this assay provides a measure of JAK cellular potency.
Human eosinophils were isolated from fresh human whole blood (AllCells) of healthy donors. Blood was mixed with 4.5% Dextran (Sigma-Aldrich) in a 0.9% sodium chloride solution (Sigma-Aldrich). Red blood cells were left to sediment for 35 minutes. The leukocyte rich upper layer was removed and layered over Ficoll-Paque (GE Healthcare) and centrifuged at 600 g for 30 minutes. The plasma and mononuclear cell layers were removed before the granulocyte layer was lysed with water to remove any contaminating red blood cells. […] Purity was analyzed using a LSRII flow cytometer (BD Biosciences). […]
After cytokine stimulation, cells were centrifuged at 300 g for 5 min and washed twice with cold DPBS (Life Technologies). To access viability and apoptosis, cells were incubated with Propidium Iodide (Thermo Fisher Scientific) and APC Annexin V (BD Biosciences) and analyzed using a LSRII flow cytometer (BD Biosciences). IC50 values were determined from analysis of the viability curves of percent cell viability vs compound concentration. Data are expressed as pIC50 (negative decadic logarithm IC50) values.

SMILES: CCc1cc(O)c(F)cc1-c1ccc2c(-c3nc4c([nH]3)CN(C(C)C)[C@H](C(=O)N3CC(N(C)C)C3)C4)n[nH]c2c1 [Example 2, (S)-(3-(dimethylamino)azetidin-1-yl)(2-(6-(2-ethyl-5-fluoro-4-hydroxyphenyl)-1H-indazol-3-yl)-5-isopropyl-4,5,6,7-tetrahydro-3H-imidazo[4,5-c]pyridin-6-yl)methanone]
- inhibition at 0.1 µM ([1]; at 0.1 μM): 6%
- inhibition at 1 µM ([1]; at 1 μM): 24%
- inhibition at 10 µM ([1]; 3 or 4 donors, read-out: % inhibition of IFNγ induced CXCL10 secretion): 101%
- inhibition at 10 µM ([1]; read-out: % inhibition of IFNγ induced CXCL9 secretion): 93%
- IC50 [2]: 63.1 nM
- IC50 ([3]; in the presence of 10 pg/ml IL-5, 72 hours): 25.1 nM
- IC50 ([3]; in the presence of 1 ng/ml IL-5, 72 hours): 631 nM
